The target of series [1] is T1, Melanin-concentrating hormone receptor 1 (Homo sapiens, UniProt Q99705). Put plainly: Inhibitory concentration against MCH1R IMR32 cells in FLIPR-based assay. It counts as cell-based, IMR-32.
In series [2] the target is T1, Melanin-concentrating hormone receptor 1. Put plainly: Inhibitory activity towards melanin-concentrating hormone receptor 1 in IMR32 cells. It counts as cell-based, IMR-32.
A short description of series [3]: Plasma half life in DIO mice after 10 mg/kg oral dose. Details: dose 10 mg/kg, route oral. In kind it is ADME, organism-based. The conditions noted are these: mouse.
Series [4] can be described thus: Brain half life in DIO mice after 10 mg/kg oral dose. The conditions noted are these: mouse. Details: dose 10 mg/kg, route oral. In kind it is ADME, organism-based.
Series [5] is described as follows: Plasma Cmax in DIO mice after 10 mg/kg oral dose. It counts as ADME, organism-based. Details: dose 10 mg/kg, route oral. The conditions noted are these: mouse.
Series [6] in a line: Brain/plasma in DIO mice after 10 mg/kg oral dose. It counts as ADME, organism-based. Details: dose 10 mg/kg, route oral. The conditions noted are these: mouse, read-out: AUC.
Series [7] is described as follows: Area under the curve in plasma of DIO mice after 10 mg/kg oral dose. The following applies: mouse, in vivo. Details: dose 10 mg/kg, route oral. It counts as ADME, organism-based.
Series [8] is described as follows: Area under the curve in brain of DIO mice after 10 mg/kg oral dose. In kind it is ADME, organism-based. Details: dose 10 mg/kg, route oral. The following applies: mouse, in vivo.
A short description of series [9]: Brain Cmax in DIO mice after 10 mg/kg oral dose. It counts as ADME, organism-based. Details: dose 10 mg/kg, route oral. The following applies: mouse.
Series [10] can be described thus: Plasma area under curve in DIO mice after 10 mg/kg oral dose. In kind it is ADME, organism-based. Details: dose 10 mg/kg, route oral. The following applies: mouse, in vivo.
Series [11] is described as follows: Brain/plasma area under curve in DIO mice after 10 mg/kg oral dose. In kind it is ADME, organism-based. Details: dose 10 mg/kg, route oral. The following applies: mouse, read-out: AUC.
Series [12] in a line: Plasma peak concentration in DIO mice after 10 mg/kg oral dose. It counts as ADME, organism-based. Details: dose 10 mg/kg, route oral. The conditions noted are these: mouse.

A word on the IC50: it is the concentration that gives 50% inhibition. Lower therefore signals inhibition by little substance. The term half-life denotes the time needed for the level to fall by half in the phase considered. The low end stands for fast loss, the high end for slow loss. The Cmax is the peak of the concentration-time curve. In general, AUC refers to concentration integrated over time.

T1 sequence (Q99705 whole entry): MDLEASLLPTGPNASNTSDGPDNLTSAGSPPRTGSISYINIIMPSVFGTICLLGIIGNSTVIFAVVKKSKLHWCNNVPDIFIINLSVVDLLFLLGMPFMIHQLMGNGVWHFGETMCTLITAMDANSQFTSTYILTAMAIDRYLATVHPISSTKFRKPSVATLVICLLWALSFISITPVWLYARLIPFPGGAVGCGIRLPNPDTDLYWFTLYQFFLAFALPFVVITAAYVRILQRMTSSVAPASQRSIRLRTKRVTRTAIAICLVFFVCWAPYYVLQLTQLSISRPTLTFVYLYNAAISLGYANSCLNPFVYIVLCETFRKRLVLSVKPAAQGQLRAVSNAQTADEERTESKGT

Regarding `O=C(NC1CCN(Cc2ccc(Cl)cc2)CC1)c1cc(Cl)cnc1NCc1ccco1`, the IC50 in series [1] stood at 1220 nM; in [2] it was 60 nM.

Turning to `O=C(NC1CCN(Cc2ccc3c(c2)OCO3)CC1)c1cc(Cl)cnc1NCC1CC1`, the IC50 in series [1] and in series [2] was 20 nM in each case.

With `COc1ccc(NCc2ncc[nH]2)c(C(=O)NC2CCN(Cc3ccc4c(c3)OCO4)CC2)c1`, the IC50 in series [1] turned out to be 220 nM; in [2], 70 nM.

Compound `CS(=O)(=O)Nc1ccc(Cl)cc1C(=O)NC1CCN(Cc2ccc3c(c2)OCO3)CC1` came in with a half-maximal inhibitory concentration (IC50) in [2] of 560 nM.

For the compound `CC(=O)c1ccc(CN2CCC(NC(=O)c3cc(Cl)ccc3NCc3c[nH]cn3)CC2)cc1`, the IC50 in [1] is 240 nM; in [2], 10 nM.

For `CC(C)OCCNc1ncc(Cl)cc1C(=O)NC1CCN(Cc2ccc3c(c2)OCO3)CC1`, the values for the half-life in series [3] and in series [4] were 2.3 h and 1.4 h, respectively. Further, the concentration for half-maximal inhibition (IC50) was 20 nM in series [1] and 10 nM in series [2]. Further, the Cmax in [5] was found to be 283 ng/mL; in [9], 276 ng/mL. Besides, the Kp in series [6] is 0.84. In addition, the results for the exposure (AUC) in series [7] and in series [8] were 677 ng·h/mL and 570 ng·h/mL, respectively.

Compound `O=C(NC1CCN(Cc2ccc3c(c2)OCO3)CC1)c1cc(Cl)cnc1Cl` displayed an IC50 in [2] of 2010 nM.

As to `O=C(NC1CCN(Cc2ccc3c(c2)OCO3)CC1)c1cc(Cl)ccc1NCc1nccs1`, the half-life was 3.8 h in [3] and 7.8 h in [4]. Also, the results for the IC50 in series [1] and in [2] were 16 nM and 2 nM, respectively. Besides, in [10], the AUC turned out to be 4100 ng·h/mL. In addition, in series [11], the Kp amounted to 0.7. The highest concentration (Cmax) in series [12] was 2030 ng/mL; in [9], 814 ng/mL.

Regarding `O=C(NC1CCN(Cc2ccc3ccccc3c2)CC1)c1cc(Cl)ccc1NCc1nccs1`, the IC50 turned out to be 40 nM in [1] and 6 nM in series [2].

Consider `O=C(NC1CCN(Cc2ccc3c(c2)OCO3)CC1)c1cc(Cl)cnc1NC[C@H]1CCCO1`, for which the IC50 in [1] is 20 nM; in series [2] it was 50 nM.

`O=C(NC1CCN(Cc2ccc3c(c2)OCO3)CC1)c1cc(Cl)cnc1NC1CCC1`: the concentration for half-maximal inhibition (IC50) in series [1] is 30 nM; in [2], 70 nM.

For `COc1ccc(NS(C)(=O)=O)c(C(=O)NC2CCN(Cc3ccc4c(c3)OCO4)CC2)c1`, the IC50 in series [2] stood at 260 nM.

Regarding `COc1ccc(CN2CCC(NC(=O)c3cc(Cl)cnc3NCC(C)C)CC2)cc1F`, in [2], half-maximal inhibition (IC50) required 160 nM.

Take `COc1ccc(NCC2CC2)c(C(=O)NC2CCN(Cc3ccc4c(c3)OCO4)CC2)c1`: the values for the half-inhibitory concentration (IC50) in series [1] and in series [2] were 90 nM and 10 nM, respectively.

Regarding `COc1ccc(NCC2CCCCC2)c(C(=O)NC2CCN(Cc3ccc4c(c3)OCO4)CC2)c1`, the half-maximal inhibitory concentration (IC50) turned out to be 1060 nM in series [1] and 50 nM in [2].

As to `COc1ccc(CNc2ncc(Cl)cc2C(=O)NC2CCN(Cc3ccccc3)CC2)cc1`, the IC50 in [1] is 30 nM; in series [2], 10 nM.

Take `CC(C)OCCNc1ncc(-c2cccs2)cc1C(=O)NC1CCN(Cc2ccc3c(c2)OCO3)CC1`: in series [2], the half-inhibitory concentration (IC50) worked out at 190 nM.

As for `COc1ccc(NCc2c[nH]cn2)c(C(=O)NC2CCN(Cc3ccc4ccccc4c3)CC2)c1`, the values for the IC50 in [1] and in [2] were 1940 nM and 390 nM, respectively.

Regarding `CC(C)OCCCNc1ncc(Cl)cc1C(=O)NC1CCN(Cc2ccc3c(c2)OCO3)CC1`, the IC50 in series [1] came out at 60 nM; in [2], 7 nM.

Consider `O=C(NC1CCN(Cc2ccc(Cl)cc2)CC1)c1cc(Cl)cnc1NC1CCC1`, for which the half-maximal inhibitory concentration (IC50) in series [2] is 1980 nM.

Take `O=C(NC1CCN(Cc2ccc3c(c2)OCO3)CC1)c1cc(Cl)cnc1NCc1cscn1`: the figures for the IC50 in series [1] and in series [2] were 8 nM and 4 nM, respectively.

The compound `COc1ccc(NS(C)(=O)=O)c(C(=O)NC2CCN(Cc3ccc(Cl)cc3)CC2)c1` registered an IC50 in [2] of 160 nM.

On to `O=C(NC1CCN(Cc2ccc3c(c2)OCO3)CC1)c1cc(Cl)ccc1O`, for which the 50% inhibitory concentration (IC50) in series [1] is 510 nM; in [2], 80 nM.

Consider `O=C(Nc1ccc(Cl)cc1C(=O)NC1CCN(Cc2ccc3c(c2)OCO3)CC1)c1ccccn1`, for which the concentration for half-maximal inhibition (IC50) in series [1] was 370 nM; in [2], 20 nM.

For the compound `O=C(NC1CCN(Cc2ccc3c(c2)OCO3)CC1)c1cc(Cl)cnc1NCc1nccs1`, the results for the IC50 in series [1] and in series [2] were 9 nM and 6 nM, respectively.

In series [2], `COc1ccc(NC(=O)NC(C)C)c(C(=O)NC2CCN(Cc3ccc(Cl)cc3)CC2)c1` registered an IC50 of 220 nM.

In the case of `Nc1ccc(Cl)cc1C(=O)NC1CCN(Cc2ccc3c(c2)OCO3)CC1`, the IC50 amounted to 200 nM in series [1] and 9 nM in [2].

As to `CC(C)Nc1ncc(Cl)cc1C(=O)NC1CCN(Cc2ccc3c(c2)CCO3)CC1`, the IC50 in series [1] and in series [2] was 70 nM in each case.

For the compound `COc1ccc(NCc2c[nH]cn2)c(C(=O)NC2CCN(Cc3ccc4c(c3)OCO4)CC2)c1`, the concentration for half-maximal inhibition (IC50) was determined as 50 nM in series [1] and 20 nM in series [2].

With `CC(C)CNc1ncc(Cl)cc1C(=O)NC1CCN(Cc2ccc3c(c2)OCO3)CC1`, the 50% inhibitory concentration (IC50) turned out to be 50 nM in series [1] and 20 nM in [2].

On to `O=C(NC1CCN(Cc2ccc3c(c2)OCO3)CC1)c1cc(Cl)cnc1NCc1ncc[nH]1`, for which the IC50 in series [1] came to 70 nM; in series [2] it was 20 nM.

For the compound `COc1ccc(NCc2cncn2C)c(C(=O)NC2CCN(Cc3ccc4c(c3)OCO4)CC2)c1`, the IC50 is 100 nM in series [1] and 90 nM in [2].

In the case of `CC(C)Nc1ncc(Cl)cc1C(=O)NC1CCN(Cc2ccc3c(c2)OCO3)CC1`, the IC50 in series [1] was determined as 30 nM; in series [2], 20 nM.

On to `COc1ccc(NCC2CCOC2)c(C(=O)NC2CCN(Cc3ccc4c(c3)OCO4)CC2)c1` (stereo not drawn), for which the IC50 in [1] is 40 nM; in [2], 20 nM.

`O=C(NC1CCN(Cc2ccc3c(c2)OCO3)CC1)c1ccccc1NCc1c[nH]cn1` yielded an IC50 in series [2] of 410 nM.

As to `O=C(NC1CCN(Cc2ccc3c(c2)OCO3)CC1)c1cc(Cl)cnc1NCc1cnc[nH]1`, the IC50 was 20 nM in series [1] and 9 nM in series [2].

In series [2], `O=C(NC1CCN(Cc2ccc(Cl)cc2)CC1)c1cc(Cl)cnc1NCC1CC1` showed an IC50 of 410 nM.

As for `COc1ccc(NCc2c[nH]cn2)c(C(=O)NC2CCN(Cc3ccc4ncccc4c3)CC2)c1`, the IC50 in [1] came to 100 nM; in series [2], 70 nM.

`COc1ccc(NCc2cncnc2)c(C(=O)NC2CCN(Cc3ccc4c(c3)OCO4)CC2)c1`: the IC50 in series [1] is 70 nM; in series [2], 9 nM.

Compound `O=C(NC1CCN(Cc2ccc3c(c2)OCO3)CC1)c1cccc(Cl)c1` yielded an IC50 in series [2] of 110 nM.

Turning to `CC(C)OCCNc1ncc(-c2ccncc2)cc1C(=O)NC1CCN(Cc2ccc3c(c2)OCO3)CC1`, the 50% inhibitory concentration (IC50) in series [2] is 140 nM.

In [2], `CNc1ccc(Cl)cc1C(=O)NC1CCN(Cc2ccc3c(c2)OCO3)CC1` had a 50% inhibitory concentration (IC50) of 680 nM.

Regarding `COc1ccc(NCc2ccccn2)c(C(=O)NC2CCN(Cc3ccc4c(c3)OCO4)CC2)c1`, the IC50 in [1] came to 70 nM; in series [2] it was 20 nM.

Consider `O=C(NC1CCN(Cc2ccc3ncccc3c2)CC1)c1cc(Cl)ccc1NCc1nccs1`, for which the figures for the IC50 in [1] and in [2] were 30 nM and 20 nM, respectively.
